Common to all, as to type: cell-based, human
The test system of assay [1] is MCF-7 cells. Kind of assay: XTT cytotoxicity assay, breast cancer cells. The following applies: for IC50: read-out: IC50, breast cancer (MCF-7); for Selectivity index (SI), breast cancer (MCF-7): versus normal cells HEK-293. As for the experimental part:
(§1) The cells were cultured in RPMI medium (Sigma) supplemented with 10% heat-inactivated fetal bovine serum, 1% penicillin, and 1% L-glutamine, and incubated in a humidified CO2 atmosphere at 37 °C.
(§2) To evaluate the cytotoxic effects of TZEPs, which were dissolved in dimethyl sulfoxide (DMSO), the XTT assay (2,3-bis(2-methoxy-4-nitro-5-sulfophenyl)-2H-tetrazolium-5-carboxanilide) was employed. […] Following the incubation, 100 μL of XTT was added to each well, and the plates were incubated for an additional 4 h at 37 °C. The resulting color change was measured by recording the absorbance at 570 nm using a microplate reader (Tecan).
(§3) Conversely, an SI less than 1 means the drug is more toxic to normal cells than to target cells, which is undesirable in therapeutic contexts.
(In general: Formazan colour is commonly taken as a measure of viable cells.)

The test system of assay [2] is HEK-293 cells. Kind of assay: XTT cytotoxicity assay, non-tumorigenic cells. Particulars: XTT assay, exposure time of the IC50 not stated (24, 48, 72 h tested). As for the experimental part: Human cell lines for breast cancer (MCF-7), lung cancer (A549), prostate cancer (PC-3), and nontumorigenic HEK-293 were sourced from the Health Protection Agency (U.K.) and the Interlab Cell Line Collection (Italy). The cells were cultured in RPMI medium (Sigma) supplemented with 10% heat-inactivated fetal bovine serum, 1% penicillin, and 1% L-glutamine, and incubated in a humidified CO2 atmosphere at 37 °C.
To evaluate the cytotoxic effects of TZEPs, which were dissolved in dimethyl sulfoxide (DMSO), the XTT assay (2,3-bis(2-methoxy-4-nitro-5-sulfophenyl)-2H-tetrazolium-5-carboxanilide) was employed. Cells were plated in 96-well plates at a density of 10^4 cells per well and exposed to varying concentrations of TZEPs (ranging from 1 to 250 μM) for 24, 48, and 72 h. Following the incubation, 100 μL of XTT was added to each well, and the plates were incubated for an additional 4 h at 37 °C. The resulting color change was measured by recording the absorbance at 570 nm using a microplate reader (Tecan).
The IC50 values, which indicate the concentration of the compound required to inhibit 50% of cancer cell proliferation, were determined using Biosoft CalcuSyn 2.1 software. […] Conversely, an SI less than 1 means the drug is more toxic to normal cells than to target cells, which is undesirable in therapeutic contexts. In the literature, a selectivity index of 2 or higher is generally considered significant, implying that the compound selectively targets diseased cells with relatively low toxicity to healthy cells.[15]

Assay [3] deals with A549 cells. Kind of assay: XTT cytotoxicity assay, lung cancer cells. Particulars: for IC50: read-out: IC50, lung cancer (A549); for Selectivity index (SI), lung cancer (A549): versus normal cells HEK-293. As for the experimental part: as §1, §2, §3
The test system of assay [4] is PC-3 cells. Kind of assay: XTT cytotoxicity assay, prostate cancer cells. Particulars: for IC50: read-out: IC50, prostate cancer (PC-3); for Selectivity index (SI), prostate cancer (PC-3): versus normal cells HEK-293. The method, then: as §1, §2, §3
In assay [5] the test system is A549 cells. Kind of assay: Annexin V-FITC/PI apoptosis detection by flow cytometry. The following applies: A549, IC50 concentration, 72 h. The text has this:
(§4) Annexin V, a protein with a high affinity for phosphatidylserine (PS), is pivotal in detecting apoptosis. Normally, PS is located in the inner leaflet of the plasma membrane, but during apoptosis, it moves to the outer leaflet, making it a key marker for apoptotic cells.[16] Annexin V binds specifically to PS on the surface of these cells. A secondary dye like propidium iodide (PI) is used to distinguish apoptotic cells from viable ones with intact membranes. We can identify and quantify viable cells (annexin V–, PI–) and apoptotic cells (annexin V+, PI+) by analyzing fluorescence patterns. Here, we employed the FITC Annexin V Apoptosis Detection Kit I from BD Pharmingen. Cells were seeded at a density of 10^6 cells per well in a 6-well plate and exposed to IC50 concentration of TZEP7 for 72 h. Following treatment, cells were rinsed with cold PBS, resuspended in 1 mL of 1× Binding Buffer, and stained with 5 μL of Annexin V FITC and 5 μL of PI. After vortexing, the samples were incubated at room temperature (25 °C) for 15 min in the dark. Postincubation, 400 μL of 1× Binding Buffer was added to each sample, and apoptosis was measured using a BD Accuri C6 Flow Cytometer. Cisplatin was used as an apoptosis-inducing reference drug.
(Flow cytometry measures light scatter and fluorescence of single cells or particles in a stream.)

The subject of assay [6] is MCF-7 cells. The description is as above. The following applies: MCF-7, IC50 concentration, 72 h.
Description: as §4

The test system of assay [7] is PC-3 cells. The description is as above. The following applies: PC-3, IC50 concentration, 72 h.
Description: as §4

Setting [8] is: Homo sapiens, MCF7, XTT assay, exposure time of the IC50 not stated (24, 48, 72 h tested).
The mark [9] stands for this setting: Homo sapiens, A549, XTT assay, exposure time of the IC50 not stated (24, 48, 72 h tested).
Where [10] appears, read: Homo sapiens, PC-3, XTT assay, exposure time of the IC50 not stated (24, 48, 72 h tested).
[11] abbreviates: XTT assay, exposure time of the IC50 not stated (24, 48, 72 h tested).

Like-named read-outs stand apart in the source and are kept apart here.

One may read the IC50 as the concentration needed to halve the response being measured.

Turning to `C(#Cc1ccccc1)/C=C1/CN=C(c2ccccc2)C=C(c2ccccc2)S1` [TZEP1], the IC50 in assay [1] (setting [8]) amounted to 69.4 ± 1.2 µM; in assay [2] (Homo sapiens, HEK293), 29.5 ± 0.8 µM; in assay [3] (setting [9]), 38.7 ± 3.2 µM; in assay [4] (setting [10]), 12.4 ± 3.2 µM. Moreover, the “Selectivity index (SI), breast cancer (MCF-7)” value (from here on “Selectivity index … (MCF-7)”) in assay [1] turned out to be 0.42. The “Selectivity index (SI), lung cancer (A549)” value (“Selectivity index … (A549)” for short) in assay [3] stood at 0.76. In addition, the “Selectivity index (SI), prostate cancer (PC-3)” value (from here on “Selectivity index (SI) … (PC-3)”) in assay [4] came out at 2.37.
Take `Fc1cccc(C2=NC/C(=C/C#Cc3ccccc3)SC(c3ccccc3)=C2)c1` [TZEP2]: the IC50 was found to be 66.4 ± 1.8 µM in assay [1] (setting [8]); 45.7 ± 2.7 µM in assay [2] (Homo sapiens, HEK293); 61.4 ± 1.6 µM in assay [3] (setting [9]); 57.7 ± 1.4 µM in assay [4] (setting [10]). For the same compound, the “Selectivity index … (MCF-7)” value in assay [1] was found to be 0.68. The “Selectivity index … (A549)” value in assay [3] was 0.74. Also, the “Selectivity index (SI) … (PC-3)” value in assay [4] is 0.79.
Regarding `Brc1ccc(C2=NC/C(=C/C#Cc3ccccc3)SC(c3ccccc3)=C2)cc1` [TZEP3], the IC50 in assay [1] (setting [8]) came to 13.3 ± 1 µM; in assay [2] (Homo sapiens, HEK293), 35.5 ± 1.3 µM; in assay [3] (setting [9]) it was 60.3 ± 0.8 µM; in assay [4] (setting [10]), 71.2 ± 0.9 µM. Besides, the “Selectivity index … (MCF-7)” value in assay [1] came out at 2.66. The “Selectivity index … (A549)” value in assay [3] was determined as 0.58. In addition, the “Selectivity index (SI) … (PC-3)” value in assay [4] is on record as 0.49.
As to `Clc1ccc(C2=CC(c3ccccc3)=NC/C(=C/C#Cc3ccccc3)S2)cc1` [TZEP4], the IC50 in assay [1] (setting [8]) was 81.2 ± 4.4 µM; in assay [2] (Homo sapiens, HEK293), 47.3 ± 0.7 µM; in assay [3] (setting [9]), 71.1 ± 2.6 µM; in assay [4] (setting [10]), 73.5 ± 2.2 µM. Further, the “Selectivity index … (MCF-7)” value in assay [1] was found to be 0.58. The “Selectivity index … (A549)” value in assay [3] stood at 0.66. Also, the “Selectivity index (SI) … (PC-3)” value in assay [4] turned out to be 0.64.
`Brc1ccccc1C1=CC(c2ccccc2)=NC/C(=C/C#Cc2ccccc2)S1` [TZEP5]: the IC50 came to 22.3 ± 1.8 µM in assay [1] (setting [8]); 20.4 ± 1.4 µM in assay [2] (Homo sapiens, HEK293); 45.8 ± 0.9 µM in assay [3] (setting [9]); 54.9 ± 3.2 µM in assay [4] (setting [10]). For the same compound, the “Selectivity index … (MCF-7)” value in assay [1] was determined as 0.91. Besides, in assay [3], the “Selectivity index … (A549)” value turned out to be 0.44. Besides, the “Selectivity index (SI) … (PC-3)” value in assay [4] stood at 0.37.
For the compound `Clc1ccc(C2=NC/C(=C/C#Cc3ccccc3)SC(c3ccccc3Br)=C2)cc1` [TZEP6], the IC50 was 15.5 ± 2.8 µM in assay [1] (setting [8]); 10.9 ± 3.4 µM in assay [2] (Homo sapiens, HEK293); 14.2 ± 2.2 µM in assay [3] (setting [9]); 12.4 ± 3.6 µM in assay [4] (setting [10]). Further, the “Selectivity index … (MCF-7)” value in assay [1] is recorded as 0.70. In addition, in assay [3], the “Selectivity index … (A549)” value worked out at 0.76. For the same compound, in assay [4], the “Selectivity index (SI) … (PC-3)” value came out at 0.87.
With `C(#Cc1ccccc1)/C=C1/CN=C(c2ccsc2)C=C(c2ccccc2)S1` [TZEP8], the IC50 in assay [1] (setting [8]) is 85.7 ± 2.4 µM; in assay [2] (Homo sapiens, HEK293) it was 99.2 ± 3 µM; in assay [3] (setting [9]) it was 112.8 ± 0.8 µM; in assay [4] (setting [10]) it was 95.4 ± 1.2 µM. Also, the “Selectivity index … (MCF-7)” value in assay [1] was found to be 1.15. For the same compound, in assay [3], the “Selectivity index … (A549)” value is listed as 0.87. Further, the “Selectivity index (SI) … (PC-3)” value in assay [4] worked out at 1.03.
`Cc1ccc(C2=NC/C(=C/C#Cc3ccccc3)SC(c3ccccc3)=C2)cc1` [TZEP9]: the IC50 in assay [1] (setting [8]) worked out at 78.4 ± 1.8 µM; in assay [2] (Homo sapiens, HEK293) it was 98.8 ± 0.7 µM; in assay [3] (setting [9]) it was 96.6 ± 1.4 µM; in assay [4] (setting [10]) it was 103 ± 2 µM. The “Selectivity index … (MCF-7)” value in assay [1] is on record as 1.26. In addition, the “Selectivity index … (A549)” value in assay [3] amounted to 1.02. In addition, the “Selectivity index (SI) … (PC-3)” value in assay [4] is given as 0.96.
Turning to `CC(C)(C)c1ccc(C2=NC/C(=C/C#Cc3ccccc3)SC(c3ccccc3)=C2)cc1` [TZEP10], the IC50 in assay [1] (setting [8]) came to 76.3 ± 0.8 µM; in assay [2] (Homo sapiens, HEK293) it was 89 ± 0.5 µM; in assay [3] (setting [9]) it was 64.4 ± 1.8 µM; in assay [4] (setting [10]), 73.7 ± 3.2 µM. The “Selectivity index … (MCF-7)” value in assay [1] turned out to be 1.16. Also, the “Selectivity index … (A549)” value in assay [3] stood at 1.38. In assay [4], the “Selectivity index (SI) … (PC-3)” value stood at 1.20.
Take `COc1ccc(C2=NC/C(=C/C#Cc3ccccc3)SC(c3ccccc3)=C2)cc1` [TZEP11]: the IC50 in assay [1] (setting [8]) was determined as 98.2 ± 2.8 µM; in assay [2] (Homo sapiens, HEK293) it was 112 ± 3 µM; in assay [3] (setting [9]), 108 ± 2.6 µM; in assay [4] (setting [10]) it was 81.6 ± 3.4 µM. For the same compound, the “Selectivity index … (MCF-7)” value in assay [1] was 1.14. Further, the “Selectivity index … (A549)” value in assay [3] is 1.04. Besides, the “Selectivity index (SI) … (PC-3)” value in assay [4] is 1.37.
Take `Cc1ccc(C#C/C=C2/CN=C(c3ccccc3)C=C(c3ccccc3)S2)cc1` [TZEP12]: the IC50 in assay [1] (setting [8]) was found to be 92.6 ± 1 µM; in assay [2] (Homo sapiens, HEK293), 110 ± 1.2 µM; in assay [3] (setting [9]) it was 90.5 ± 0.7 µM; in assay [4] (setting [10]), 101 ± 3 µM. Further, the “Selectivity index … (MCF-7)” value in assay [1] was 1.19. Besides, the “Selectivity index … (A549)” value in assay [3] is listed as 1.21. In assay [4], the “Selectivity index (SI) … (PC-3)” value turned out to be 1.09.
For `N.N.[Cl][Pt][Cl]` [cisplatin, Cisplatin, reference compound], the IC50 in assay [1] (setting [11]) came out at 14.7 ± 0.6 µM; in assay [2], 15 ± 0.7 µM; in assay [3] (setting [11]) it was 13.4 ± 1.4 µM; in assay [4] (setting [11]), 12.8 ± 2.8 µM. For the same compound, in assay [1], the “Selectivity index … (MCF-7)” value worked out at 1.02. Also, the “cells in early apoptosis” value in assay [5] is 13.4%; in assay [6] it was 18.7%; in assay [7], 16.2%. Further, the figures for the “cells in late apoptosis” value in assay [5], in assay [6] and in assay [7] were 70.8%, 72.2% and 75.4%, respectively. Besides, the “Selectivity index … (A549)” value in assay [3] amounted to 1.11. Besides, the “Selectivity index (SI) … (PC-3)” value in assay [4] was found to be 1.17.
Turning to `C#Cc1cccc(Nc2ncnc3cc(OCCOC)c(OCCOC)cc23)c1` [erlotinib, Erlotinib, reference compound], the IC50 in assay [1] (Homo sapiens, MCF7, 72 h) turned out to be 13.4 ± 2 µM; in assay [2] (Homo sapiens, HEK293), 12.9 ± 3 µM; in assay [3] (Homo sapiens, A549, 72 h), 18.4 ± 0.4 µM; in assay [4] (Homo sapiens, PC-3, 72 h) it was 15.5 ± 30.8 µM.

The values above are taken from paper PMC11740379, “Novel Enyne-Modified 1,4-Thiazepines as Epidermal Growth Factor Receptor Inhibitors: Anticancer and Computational Studies” (ACS Omega, 2024).
